≈ marks a conversion by molar mass, not a printed value. Like-named read-outs stand apart in the source and are kept apart here.
Columns and labels:
[1] = test system: Streptococcus pneumoniae 1/1; assay: MIC against Streptococcus pneumoniae 1/1; format: cell-based; conditions: Streptococcus pneumoniae 1/1, trimethoprim- and penicillin-resistant, serotype 6, clinical isolate, read-out: MIC Sp1/1
[2] = test system: Staphylococcus aureus 101; assay: MIC against Staphylococcus aureus 101; format: cell-based; conditions: Staphylococcus aureus 101, MRSA- and trimethoprim-resistant, clinical isolate, read-out: MIC Sa101
[3] = target: T1, purified DHFR of strain Sp1/1 of Streptococcus pneumoniae (Streptococcus pneumoniae serotype 4, UniProt Q54801); format: biochemical; conditions: IC50 against purified DHFR of strain Sp1/1
T1 sequence (Q54801 1-168 I100L): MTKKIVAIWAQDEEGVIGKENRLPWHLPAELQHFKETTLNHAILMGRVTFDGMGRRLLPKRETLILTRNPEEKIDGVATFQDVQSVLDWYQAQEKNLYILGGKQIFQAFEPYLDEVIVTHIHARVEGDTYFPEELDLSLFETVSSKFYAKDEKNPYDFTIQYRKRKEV

[4] = target: purified DHFR of strain 157/4696 of Staphylococcus aureus (Staphylococcus aureus, UniProt P13955); assay: biochemical
Chain of purified DHFR of strain 157/4696 of Staphylococcus aureus (P13955 whole entry): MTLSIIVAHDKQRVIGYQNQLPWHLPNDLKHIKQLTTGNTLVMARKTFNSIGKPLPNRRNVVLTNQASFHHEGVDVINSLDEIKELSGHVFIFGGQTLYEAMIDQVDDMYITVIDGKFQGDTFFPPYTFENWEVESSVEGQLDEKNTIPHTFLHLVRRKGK

| Compound | MIC ([1]; Table 2) | MIC ([2]; Table 2) | IC50 ([3]; Table 2) | IC50 [4] | MIC ([1]; Table 1) | MIC ([2]; Table 1) | IC50 ([3]; Table 1) |
| --- | --- | --- | --- | --- | --- | --- | --- |
| CCOc1cc(Cc2cnc(N)nc2N)cc(OS(=O)(=O)N(C)C2CC2)c1-c1ccc(O)cc1 [Example 20-f, N-Cyclopropld-N-methyl-sulphamic acid 4-(2,4-diamino-pyrimidin-5-ylmethyl)-6-ethoxy-4′-hydroxy-biphenyl-2-yl ester] | 1 µg/mL (≈ 2.06 µM) | 1 µg/mL (≈ 2.06 µM) | 9.8 nM | 140 nM |  |  |  |
| CCOc1cc(Cc2cnc(N)nc2N)cc(OS(=O)(=O)N(C)CC)c1-c1ccc(O)cc1 [Example 20-g, N-Ethyl-N-methyl-sulphamic acid 4-(2,4-diamino-pyrimidin-5-ylmethyl)-6-ethoxy-4′-hydroxy-biphenyl-2-yl ester] | 1 µg/mL (≈ 2.11 µM) | 2 µg/mL (≈ 4.22 µM) | 7.2 nM | 160 nM |  |  |  |
| CCOc1cc(Cc2cnc(N)nc2N)cc(OS(=O)(=O)N(CC)CC)c1-c1ccc(O)cc1 [Example 20-h, Diethyl-sulphamic acid 4-(2,4-diamino-pyrimidin-5-ylmethyl)-6-ethoxy-4′-hydroxy-biphenyl-2-yl ester] | 1 µg/mL (≈ 2.05 µM) | 2 µg/mL (≈ 4.1 µM) | 9.2 nM | 350 nM |  |  |  |
| CCOc1cc(Cc2cnc(N)nc2N)cc(OS(=O)(=O)N(C)C)c1-c1ccc(OC)cc1 [Example 21-, Dimethylsulphamic acid 4-(2,4-diamino-pyrimidin-5-ylmethyl)-6-ethoxy-4′-methoxy-biphenyl-2-yl ester] | 2 µg/mL (≈ 4.22 µM) | 2 µg/mL (≈ 4.22 µM) | 52 nM | 130 nM |  |  |  |
| CCOc1cc(Cc2cnc(N)nc2N)cc(OS(=O)(=O)N(C)C)c1-c1ccc(N)cc1 [Example 22-a, Dimethylsulphamic acid 4′-amino-4-(2,4-diamino-pyrimidin-5-ylmethyl)-6-ethoxy-biphenyl-2-yl ester] | 1 µg/mL (≈ 2.18 µM) | 2 µg/mL (≈ 4.36 µM) | 3.1 nM | 48 nM |  |  |  |
| CCOc1cc(Cc2cnc(N)nc2N)cc(OS(=O)(=O)N(C)CC)c1-c1ccc(N)cc1 [Example 22-b, N-Ethyl-N-methyl-sulphamic acid 4′-amino-4-(2,4-diamino-pyrimidin-5-ylmethyl)-6-ethoxy-biphenyl-2-yl ester] | 1 µg/mL (≈ 2.12 µM) | 1 µg/mL (≈ 2.12 µM) | 2.3 nM | 38 nM |  |  |  |
| CCOc1cc(Cc2cnc(N)nc2N)cc(OS(=O)(=O)N2CCCC2)c1-c1ccc(N)cc1 [Example 22-c, Pyrrolidine-1-sulphonic acid 4′-amino-4-(2,4-diamino-Ryrimidin-5-ylmethyl)-6-ethoxy-biphenyl-2-yl ester] | 1 µg/mL (≈ 2.06 µM) | 1 µg/mL (≈ 2.06 µM) | 3.3 nM | 140 nM |  |  |  |
| CCOc1cc(Cc2cnc(N)nc2N)cc(OS(=O)(=O)N2CCOCC2)c1-c1ccc(N)cc1 [Example 22-d, Morpholine-4-sulphonic acid 4′-amino-4-(2,4-diamino-pyrimidin-5-ylmethyl)-6-ethoxy-biphenyl-2-yl ester] | 1 µg/mL (≈ 2 µM) | 2 µg/mL (≈ 4 µM) | 6.1 nM | 45 nM |  |  |  |
| CCOc1cc(Cc2cnc(N)nc2N)cc(OS(=O)(=O)N(CC)CC)c1-c1ccc(N)cc1 [Example 22-f, Diethylsulphamic acid 4′-amino-4-(2,4-diamino-pyrimidin-5-ylmethyl)-6-ethoxy-biphenyl-2-yl ester] | 1 µg/mL (≈ 2.06 µM) | 2 µg/mL (≈ 4.11 µM) | 14 nM | 150 nM |  |  |  |
| CCOc1cc(Cc2cnc(N)nc2N)cc(OS(=O)(=O)N(C)C2CC2)c1-c1ccc(N)cc1 [Example 22e, N-Cyclopropyl-N-methyl-sulphamic acid 4′-amino-4-(2,4-diamino-pyrimidin-5-ylmethyl)-6-ethoxy-biphenyl-2-yl ester] |  |  |  | 150 nM | 1 µg/mL (≈ 2.06 µM) | 2 µg/mL (≈ 4.13 µM) | 13 nM |
| CCOc1cc(Cc2cnc(N)nc2N)cc(OCC2CC2)c1-c1ccc(CN2CCOCC2)s1 [Example 23-, 5-[3-Cyclopropylmethoxy-5-ethoxy-4-(5-morpholin-4-ylmethyl-thiophen-2-yl)-benzyl]-pyrimidine-2,4-diamine] | 1 µg/mL (≈ 2.02 µM) | 8 µg/mL (≈ 16.1 µM) | 8 nM | 2600 nM |  |  |  |
| CCOc1cc(Cc2cnc(N)nc2N)cc(OS(=O)(=O)C2CC2)c1-c1ccc(CN2CCOCC2)s1 [Example 24-, Cyclopropanesulphonic acid 5-(2,4-diamino-pyrimidin-5-ylmethyl)-3-ethoxy-2-(5-morpholin-4-ylmethyl-thiophen-2-yl)-phenyl ester] | 1 µg/mL (≈ 1.83 µM) | 4 µg/mL (≈ 7.33 µM) | 16 nM | 190 nM |  |  |  |
| CCOc1cc(Cc2cnc(N)nc2N)cc(OS(=O)(=O)N(C)C)c1-c1ccc(NC)cc1 [Example 26-a, Dimethylsulphamic acid 4-(2,4-diamino-pyrimidin-5-ylmethyl)-6-ethoxy-4′-methylamino-biphenyl-2-yl ester] | 1 µg/mL (≈ 2.12 µM) | 1 µg/mL (≈ 2.12 µM) | 2.1 nM | 130 nM |  |  |  |
| CCOc1cc(Cc2cnc(N)nc2N)cc(OS(=O)(=O)N(C)CC)c1-c1ccc(NC)cc1 [Example 26-b, N-Ethyl-N-methyl-sulphamic acid 4-(2,4-diamino-pvrimidin-5-ylmethyl)-6-ethoxy-4′-methylamino-biphenyl-2-yl ester] | 1 µg/mL (≈ 2.06 µM) | 1 µg/mL (≈ 2.06 µM) | 1.9 nM | 170 nM |  |  |  |
| CCOc1cc(Cc2cnc(N)nc2N)cc(OS(=O)(=O)N(C)C2CC2)c1-c1ccc(NC)cc1 [Example 26-d, N-Cyclopropyl-N-methyl-sulphamic acid 4-(2,4-diamino-pyrimidin-5-ylmethyl)-6-ethoxy-4′-methylamino-biphenyl-2-yl ester] | 1 µg/mL (≈ 2.01 µM) | 1 µg/mL (≈ 2.01 µM) | 5.1 nM | 140 nM |  |  |  |
| CCOc1cc(Cc2cnc(N)nc2N)cc(OS(=O)(=O)N2CCCC2)c1-c1ccc(NC)cc1 [Example 26-e, Pyrrolidine-1-sulphonic acid 4-(2,4-diamino-pyrimidin-5-ylmethyl)-6-ethoxy-4′-methylamino-biphenyl-2-yl ester] | 1 µg/mL (≈ 2.01 µM) | 1 µg/mL (≈ 2.01 µM) | 2.3 nM | 130 nM |  |  |  |
| CCOc1cc(Cc2cnc(N)nc2N)cc(OS(=O)(=O)N(CC)CC)c1-c1ccc(NC)cc1 [Example 26-f, Diethylsulphamic acid 4-(2,4-diamino-pyrimidin-5-ylmethyl)-6-ethoxy-4′-methylamino-biphenyl-2-yl ester] | 1 µg/mL (≈ 2 µM) | 2 µg/mL (≈ 4 µM) | 8.8 nM | 230 nM |  |  |  |
| CCOc1cc(Cc2cnc(N)nc2N)cc(OS(=O)(=O)N2CCOCC2)c1-c1ccc(NC)cc1 [Example 26c, Morpholine-4-sulphonic acid 4-(2,4-diamino-pyrimidin-5-ylmethyl)-6-ethoxy-4′-methylamino-biphenyl-2-yl ester] |  |  |  | 56 nM | 0.5 µg/mL (≈ 0.972 µM) | 1 µg/mL (≈ 1.94 µM) | 3.2 nM |
| CCOc1cc(Cc2cnc(N)nc2N)cc(OS(=O)(=O)N(C)C)c1-c1ccc(N)c(C)c1 [Example 27-a, Dimethylsulphamic acid 4′-amino-4-(2,4-diamino-pyrimidin-5-ylmethyl)-6-ethoxy-3′-methyl-biphenyl-2-yl ester] | 1 µg/mL (≈ 2.12 µM) | 2 µg/mL (≈ 4.23 µM) | 22 nM | 220 nM |  |  |  |
| CCOc1cc(Cc2cnc(N)nc2N)cc(OS(=O)(=O)N(C)CC)c1-c1ccc(N)c(C)c1 [Example 27-b, N-Ethyl-N-methyl-sulphamic acid 4′-amino-4-(2,4-diamino-vyrimidin-5-ylmethyl)-6-ethoxy-3′-methyl-biphenyl-2-yl ester] | 1 µg/mL (≈ 2.06 µM) | 2 µg/mL (≈ 4.11 µM) | 14 nM | 190 nM |  |  |  |
| CCOc1cc(Cc2cnc(N)nc2N)cc(OS(=O)(=O)N(C)C2CC2)c1-c1ccc(N)c(C)c1 [Example 27-c, N-Cyclopropyl-N-methyl-sulphamic acid 4′-amino-4-(2,4-diamino-pyrimidin-5-ylmethyl)-6-ethoxy-3′-methyl-biphenyl-2-yl ester] | 1 µg/mL (≈ 2.01 µM) | 1 µg/mL (≈ 2.01 µM) | 2.6 nM | 180 nM |  |  |  |
| CCOc1cc(Cc2cnc(N)nc2N)cc(OS(=O)(=O)N(C)C)c1-c1ccc(N)c(F)c1 [Example 28-a, Dimethylsullhamic acid 4′-amino-4-(2,4-diamino-pyrimidin-5-ylmethyl)-6-ethoxy-3′-fluoro-biphenyl-2-yl ester] | 1 µg/mL (≈ 2.1 µM) | 2 µg/mL (≈ 4.2 µM) | 5.8 nM | 320 nM |  |  |  |
| CCOc1cc(Cc2cnc(N)nc2N)cc(OS(=O)(=O)N(C)CC)c1-c1ccc(N)c(F)c1 [Example 28-b, N-Ethyl-N-methyl-sulphamic acid 4′-amino-4-(2,4-diamino-pyrimidin-5-ylmethyl)-6-ethoxy-3′-fluoro-biphenyl-2-yl ester] | 1 µg/mL (≈ 2.04 µM) | 2 µg/mL (≈ 4.08 µM) | 6.8 nM | 320 nM |  |  |  |
| CCOc1cc(Cc2cnc(N)nc2N)cc(OS(=O)(=O)N(C)C2CC2)c1-c1ccc(N)c(F)c1 [Example 28-c, N-Cyclopropyl-N-methyl-sulphamic acid 4′-amino-4-(2,4-diamino-pvrimidin-5-ylmethyl)-6-ethoxy-3′-fluoro-biphenyl-2-yl ester] | 1 µg/mL (≈ 1.99 µM) | 2 µg/mL (≈ 3.98 µM) | 18 nM | 240 nM |  |  |  |
